The source made the active and inactive calls. Rule as the data show it, for most assays here: actives have a measured Kd and inactives only a lower limit.
Legend:
[1] = target: T1, ATP-dependent 6-phosphofructokinase, platelet type (Homo sapiens, UniProt Q01813)
T1 sequence (Q01813 whole entry): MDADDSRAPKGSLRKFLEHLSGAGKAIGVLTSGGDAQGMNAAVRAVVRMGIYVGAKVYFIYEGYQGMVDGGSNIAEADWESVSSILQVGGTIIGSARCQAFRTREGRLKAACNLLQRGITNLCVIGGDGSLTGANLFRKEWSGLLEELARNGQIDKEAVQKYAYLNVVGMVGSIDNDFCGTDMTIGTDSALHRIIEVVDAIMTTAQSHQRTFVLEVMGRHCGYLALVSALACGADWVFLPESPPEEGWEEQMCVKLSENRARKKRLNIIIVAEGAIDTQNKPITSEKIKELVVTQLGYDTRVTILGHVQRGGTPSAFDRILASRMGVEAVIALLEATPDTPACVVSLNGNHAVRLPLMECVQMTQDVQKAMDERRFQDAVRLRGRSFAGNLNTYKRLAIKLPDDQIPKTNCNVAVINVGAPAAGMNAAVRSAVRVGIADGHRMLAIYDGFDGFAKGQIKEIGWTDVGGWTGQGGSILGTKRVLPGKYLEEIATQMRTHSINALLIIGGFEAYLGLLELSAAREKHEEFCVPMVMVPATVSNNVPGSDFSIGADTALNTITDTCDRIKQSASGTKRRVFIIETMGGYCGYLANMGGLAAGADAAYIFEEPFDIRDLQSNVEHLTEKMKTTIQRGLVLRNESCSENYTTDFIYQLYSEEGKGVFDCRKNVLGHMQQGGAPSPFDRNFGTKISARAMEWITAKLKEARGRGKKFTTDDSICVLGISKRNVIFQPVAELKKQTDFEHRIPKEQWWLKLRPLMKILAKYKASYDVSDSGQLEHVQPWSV

[2] = target: Tyrosine-protein kinase Lck (Homo sapiens, UniProt P06239)
Tyrosine-protein kinase Lck, sequence (P06239 whole entry): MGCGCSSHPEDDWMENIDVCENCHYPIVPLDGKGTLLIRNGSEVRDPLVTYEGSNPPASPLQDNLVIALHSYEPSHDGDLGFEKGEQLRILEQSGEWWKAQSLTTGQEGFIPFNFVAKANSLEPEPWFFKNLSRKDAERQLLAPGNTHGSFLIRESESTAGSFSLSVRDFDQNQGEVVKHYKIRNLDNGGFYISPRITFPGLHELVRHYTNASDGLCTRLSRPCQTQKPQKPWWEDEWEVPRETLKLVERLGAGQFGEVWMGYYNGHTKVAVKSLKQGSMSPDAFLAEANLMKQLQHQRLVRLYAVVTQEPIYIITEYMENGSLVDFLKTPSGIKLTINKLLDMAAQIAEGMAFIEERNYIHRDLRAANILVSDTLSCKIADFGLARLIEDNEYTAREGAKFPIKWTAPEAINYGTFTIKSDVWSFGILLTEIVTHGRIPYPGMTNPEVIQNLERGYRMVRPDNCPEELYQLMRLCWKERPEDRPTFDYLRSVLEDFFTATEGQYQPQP

[3] = target: U5 small nuclear ribonucleoprotein 200 kDa helicase (Homo sapiens, UniProt O75643)
U5 small nuclear ribonucleoprotein 200 kDa helicase, sequence (O75643 whole entry): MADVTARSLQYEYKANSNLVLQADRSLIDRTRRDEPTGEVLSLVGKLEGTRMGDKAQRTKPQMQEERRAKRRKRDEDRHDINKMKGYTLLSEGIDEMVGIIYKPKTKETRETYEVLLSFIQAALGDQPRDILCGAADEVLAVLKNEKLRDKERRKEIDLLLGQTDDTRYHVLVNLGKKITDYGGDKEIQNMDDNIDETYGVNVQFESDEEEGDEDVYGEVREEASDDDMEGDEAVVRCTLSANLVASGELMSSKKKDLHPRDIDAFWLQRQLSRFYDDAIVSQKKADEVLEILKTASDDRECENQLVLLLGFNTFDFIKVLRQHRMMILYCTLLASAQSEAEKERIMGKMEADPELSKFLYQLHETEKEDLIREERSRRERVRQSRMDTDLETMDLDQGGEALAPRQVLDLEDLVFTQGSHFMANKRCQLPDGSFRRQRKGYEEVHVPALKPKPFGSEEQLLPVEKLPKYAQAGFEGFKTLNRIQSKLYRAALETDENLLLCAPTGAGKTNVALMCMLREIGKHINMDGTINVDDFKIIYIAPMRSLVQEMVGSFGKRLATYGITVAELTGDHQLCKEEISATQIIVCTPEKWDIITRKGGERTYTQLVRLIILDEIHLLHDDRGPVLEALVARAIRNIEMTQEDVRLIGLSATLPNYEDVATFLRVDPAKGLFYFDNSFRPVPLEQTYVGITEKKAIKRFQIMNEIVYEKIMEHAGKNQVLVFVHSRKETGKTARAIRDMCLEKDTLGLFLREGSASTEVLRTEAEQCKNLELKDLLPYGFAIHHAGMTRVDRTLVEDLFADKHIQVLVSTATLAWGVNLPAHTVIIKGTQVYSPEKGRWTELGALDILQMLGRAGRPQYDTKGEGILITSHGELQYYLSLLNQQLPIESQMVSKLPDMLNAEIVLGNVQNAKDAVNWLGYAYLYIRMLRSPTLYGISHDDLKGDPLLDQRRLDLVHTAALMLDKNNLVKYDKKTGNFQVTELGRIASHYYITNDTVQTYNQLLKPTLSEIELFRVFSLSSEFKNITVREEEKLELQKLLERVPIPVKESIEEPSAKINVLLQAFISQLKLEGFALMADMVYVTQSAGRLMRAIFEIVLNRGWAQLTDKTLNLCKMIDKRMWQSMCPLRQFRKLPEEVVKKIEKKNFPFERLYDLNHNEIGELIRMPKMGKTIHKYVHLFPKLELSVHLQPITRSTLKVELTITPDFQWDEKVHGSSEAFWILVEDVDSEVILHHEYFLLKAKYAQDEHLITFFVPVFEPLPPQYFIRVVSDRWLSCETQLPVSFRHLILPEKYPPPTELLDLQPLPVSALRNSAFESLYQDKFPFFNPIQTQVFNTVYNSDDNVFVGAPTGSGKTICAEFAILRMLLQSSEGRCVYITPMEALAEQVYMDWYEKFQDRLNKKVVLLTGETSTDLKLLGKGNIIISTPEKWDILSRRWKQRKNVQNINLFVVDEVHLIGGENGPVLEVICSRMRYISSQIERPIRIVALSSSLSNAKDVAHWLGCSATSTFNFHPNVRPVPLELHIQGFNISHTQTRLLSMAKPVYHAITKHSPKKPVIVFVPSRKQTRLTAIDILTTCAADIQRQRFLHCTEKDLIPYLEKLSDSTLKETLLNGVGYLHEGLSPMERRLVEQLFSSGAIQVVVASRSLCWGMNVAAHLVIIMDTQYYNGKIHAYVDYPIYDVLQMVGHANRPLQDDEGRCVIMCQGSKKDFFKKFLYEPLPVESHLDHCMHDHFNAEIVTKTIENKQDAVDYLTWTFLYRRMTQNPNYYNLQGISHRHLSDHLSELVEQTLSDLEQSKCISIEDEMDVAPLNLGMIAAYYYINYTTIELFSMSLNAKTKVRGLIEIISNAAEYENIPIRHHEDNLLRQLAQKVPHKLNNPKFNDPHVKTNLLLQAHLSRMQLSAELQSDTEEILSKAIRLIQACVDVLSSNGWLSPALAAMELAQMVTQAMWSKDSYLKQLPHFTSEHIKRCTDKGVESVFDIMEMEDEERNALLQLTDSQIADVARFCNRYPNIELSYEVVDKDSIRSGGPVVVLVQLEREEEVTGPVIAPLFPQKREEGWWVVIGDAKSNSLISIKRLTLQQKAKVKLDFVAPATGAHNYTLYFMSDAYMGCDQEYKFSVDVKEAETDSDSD

[4] = target: T2, Serine/threonine-protein kinase TAO3 (Homo sapiens, UniProt Q9H2K8)
T2 sequence (Q9H2K8 whole entry): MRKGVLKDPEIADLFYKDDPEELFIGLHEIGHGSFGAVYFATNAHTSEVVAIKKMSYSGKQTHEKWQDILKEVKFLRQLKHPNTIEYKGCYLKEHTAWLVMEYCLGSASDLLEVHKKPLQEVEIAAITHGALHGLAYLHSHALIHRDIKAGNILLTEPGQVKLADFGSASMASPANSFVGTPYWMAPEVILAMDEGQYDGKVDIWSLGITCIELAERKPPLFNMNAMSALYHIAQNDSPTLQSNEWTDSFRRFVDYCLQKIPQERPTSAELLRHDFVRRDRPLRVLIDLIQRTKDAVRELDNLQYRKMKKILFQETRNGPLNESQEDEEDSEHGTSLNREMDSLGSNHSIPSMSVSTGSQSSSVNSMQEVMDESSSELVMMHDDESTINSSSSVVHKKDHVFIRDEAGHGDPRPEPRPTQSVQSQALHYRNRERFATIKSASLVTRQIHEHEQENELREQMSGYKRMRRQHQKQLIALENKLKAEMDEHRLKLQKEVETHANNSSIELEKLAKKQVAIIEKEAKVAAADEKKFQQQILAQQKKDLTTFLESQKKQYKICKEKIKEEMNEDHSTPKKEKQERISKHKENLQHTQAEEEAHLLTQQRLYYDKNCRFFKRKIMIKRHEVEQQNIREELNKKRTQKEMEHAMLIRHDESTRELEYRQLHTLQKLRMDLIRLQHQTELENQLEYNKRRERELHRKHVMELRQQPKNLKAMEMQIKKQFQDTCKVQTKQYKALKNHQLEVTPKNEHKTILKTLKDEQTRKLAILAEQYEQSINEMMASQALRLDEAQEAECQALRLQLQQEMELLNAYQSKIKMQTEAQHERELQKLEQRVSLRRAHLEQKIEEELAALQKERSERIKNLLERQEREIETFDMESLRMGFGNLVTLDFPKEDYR

[5] = target: Calcium/calmodulin-dependent protein kinase kinase 2 (Homo sapiens, UniProt Q96RR4)
[6] = target: Serine/threonine-protein kinase/endoribonuclease IRE2 (Homo sapiens, UniProt Q76MJ5)
Serine/threonine-protein kinase/endoribonuclease IRE2, sequence (Q76MJ5 whole entry): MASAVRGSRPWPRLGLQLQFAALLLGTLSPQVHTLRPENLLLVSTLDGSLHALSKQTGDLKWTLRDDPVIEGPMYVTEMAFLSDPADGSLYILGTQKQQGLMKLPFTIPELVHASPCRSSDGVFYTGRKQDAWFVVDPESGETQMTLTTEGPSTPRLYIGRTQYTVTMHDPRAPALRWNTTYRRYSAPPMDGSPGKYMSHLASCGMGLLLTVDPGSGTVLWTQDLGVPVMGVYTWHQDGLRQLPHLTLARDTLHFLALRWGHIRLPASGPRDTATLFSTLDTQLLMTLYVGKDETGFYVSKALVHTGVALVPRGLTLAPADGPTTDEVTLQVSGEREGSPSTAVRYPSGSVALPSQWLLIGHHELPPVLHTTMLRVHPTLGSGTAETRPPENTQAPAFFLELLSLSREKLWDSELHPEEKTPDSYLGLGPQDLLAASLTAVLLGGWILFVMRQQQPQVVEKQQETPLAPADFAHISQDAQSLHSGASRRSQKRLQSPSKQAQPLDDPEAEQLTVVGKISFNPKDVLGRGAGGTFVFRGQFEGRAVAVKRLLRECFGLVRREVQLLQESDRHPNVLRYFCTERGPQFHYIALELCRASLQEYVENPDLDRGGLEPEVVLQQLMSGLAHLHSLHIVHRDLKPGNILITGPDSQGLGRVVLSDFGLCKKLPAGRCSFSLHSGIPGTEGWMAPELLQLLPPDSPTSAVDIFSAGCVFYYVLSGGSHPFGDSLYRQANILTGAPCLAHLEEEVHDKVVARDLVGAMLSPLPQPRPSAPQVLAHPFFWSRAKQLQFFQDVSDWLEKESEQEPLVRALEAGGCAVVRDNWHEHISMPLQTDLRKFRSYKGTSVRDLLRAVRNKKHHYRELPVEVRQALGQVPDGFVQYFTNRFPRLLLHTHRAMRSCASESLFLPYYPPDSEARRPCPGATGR

[7] = target: Serine/threonine-protein kinase 26 (Homo sapiens, UniProt Q9P289)
Serine/threonine-protein kinase 26, sequence (Q9P289 whole entry): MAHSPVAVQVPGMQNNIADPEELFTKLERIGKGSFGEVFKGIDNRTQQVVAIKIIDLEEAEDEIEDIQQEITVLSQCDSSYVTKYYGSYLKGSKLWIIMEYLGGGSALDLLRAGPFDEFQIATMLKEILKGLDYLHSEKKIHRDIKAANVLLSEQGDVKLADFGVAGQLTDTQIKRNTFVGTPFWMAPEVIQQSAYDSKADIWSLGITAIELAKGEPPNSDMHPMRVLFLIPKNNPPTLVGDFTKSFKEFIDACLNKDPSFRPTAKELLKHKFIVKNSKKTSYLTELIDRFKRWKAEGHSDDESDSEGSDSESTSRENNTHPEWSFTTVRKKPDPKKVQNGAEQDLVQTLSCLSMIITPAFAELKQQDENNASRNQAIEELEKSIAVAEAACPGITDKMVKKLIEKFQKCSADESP

[8] = target: ATP-dependent RNA helicase DDX3X (Homo sapiens, UniProt O00571)
ATP-dependent RNA helicase DDX3X, sequence (O00571 whole entry): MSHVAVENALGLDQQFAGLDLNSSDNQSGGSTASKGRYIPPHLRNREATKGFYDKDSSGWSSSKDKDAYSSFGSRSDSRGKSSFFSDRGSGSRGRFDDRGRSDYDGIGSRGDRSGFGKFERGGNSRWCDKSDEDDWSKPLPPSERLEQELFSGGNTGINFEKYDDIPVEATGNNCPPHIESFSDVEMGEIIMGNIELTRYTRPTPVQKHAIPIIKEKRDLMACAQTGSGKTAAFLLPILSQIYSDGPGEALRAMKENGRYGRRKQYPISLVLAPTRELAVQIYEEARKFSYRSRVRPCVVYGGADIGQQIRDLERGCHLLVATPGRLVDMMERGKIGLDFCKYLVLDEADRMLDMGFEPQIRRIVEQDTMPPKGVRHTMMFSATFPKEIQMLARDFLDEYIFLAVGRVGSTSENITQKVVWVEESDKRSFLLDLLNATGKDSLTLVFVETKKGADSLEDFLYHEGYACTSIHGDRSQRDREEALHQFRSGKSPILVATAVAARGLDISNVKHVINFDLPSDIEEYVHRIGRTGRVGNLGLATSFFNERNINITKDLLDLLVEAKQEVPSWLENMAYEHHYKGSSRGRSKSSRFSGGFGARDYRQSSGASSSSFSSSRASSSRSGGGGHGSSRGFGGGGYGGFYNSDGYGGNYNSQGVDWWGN

[9] = target: T3, Ribosyldihydronicotinamide dehydrogenase [quinone] (Homo sapiens, UniProt P16083)
T3 sequence (P16083 whole entry): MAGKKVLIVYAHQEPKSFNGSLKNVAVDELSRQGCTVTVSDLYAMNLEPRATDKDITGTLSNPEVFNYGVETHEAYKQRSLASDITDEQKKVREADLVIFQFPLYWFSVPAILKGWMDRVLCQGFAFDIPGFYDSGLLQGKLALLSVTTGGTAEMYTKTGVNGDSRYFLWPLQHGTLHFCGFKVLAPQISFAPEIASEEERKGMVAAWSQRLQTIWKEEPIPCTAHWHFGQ

Measured: Kd
Also: in the data inactive means no Kd found up to 30 µM.

CN1CCC(CNc2ccc3ncc(-c4cccc(OC(F)(F)F)c4)n3n2)CC1 [SGI-1776]
inactive: [1] > 30 µM | [2] > 30 µM | [3] > 30 µM | [4] > 30 µM | [5] > 30 µM | [6] > 30 µM | [7] > 30 µM | [8] > 30 µM | [9] > 30 µM

CCCS(=O)(=O)Nc1ccc(F)c(C(=O)c2c[nH]c3ncc(-c4ccc(Cl)cc4)cc23)c1F [VEMURAFENIB]
inactive: [1] > 30 µM | [2] > 30 µM | [3] > 30 µM | [4] > 30 µM | [5] > 30 µM | [6] > 30 µM | [7] > 30 µM | [8] > 30 µM | [9] > 30 µM

C=CC(=O)N1CCC(Oc2cc3c(Nc4ccc(Cl)c(Cl)c4F)ncnc3cc2OC)CC1 [POZIOTINIB]
inactive: [1] > 30 µM | [2] > 30 µM | [3] > 30 µM | [4] > 30 µM | [5] > 30 µM | [6] > 30 µM | [7] > 30 µM | [8] > 30 µM | [9] > 30 µM
